18 molecules from US6797700B2, “Antithrombotic azacycloalkylalkanoyl peptides and pseudopeptides” (Aventis Pharmaceuticals, Inc., priority 1993, dated 2004) can be followed below.

Read-outs that look alike come from different tables or passages of the source. Some results are limits rather than exact numbers.

The test system of assay [1] is fixed activated platelets. Description: Platelet Aggregation Assay (fixed-activated platelets, fibrinogen-mediated aggregation). The assay is classed as cell-based. Conditions: aggregation initiated by human fibrinogen 250 μg/ml, read-out: Inhibition of Fixed Platelet Aggregation (IC50 μM). As for the experimental part: Preparation of Fixed-Activated Platelets
Platelets are isolated from human platelet concentrates using the gel-filtration technique as described by Marguerie, G. A., et al., J. Biol. Chem. 254, 5357-5363 (1979) and Ruggeri, Z. M., et al., J. Clin. Invest. 72, 1-12 (1983). The platelets are suspended at a concentration of 2×10^8 cells/ml in a modified calcium-free Tyrode's buffer containing 127 mM sodium chloride, 2 mM magnesium chloride, 0.42 mM Na2HPO4, 11.9 mM NaHCO3, 2.9 mM KCl, 5.5 mM glucose, 10 mM HEPES, at a pH of 7.35 and 0.35% human serum albumin (HSA). These washed platelets are activated by addition of human a-thrombin at a final concentration of 2 units/ml, followed by thrombin inhibitor I-2581 at a final concentration of 40 μM. To the activated platelets is added paraformaldehyde to a final concentration of 0.50% and this incubated at room temperature for 30 minutes. The fixed activated platelets are then collected by centrifugation at 650×g for 15 minutes. The platelet pellets are washed four times with the above Tyrode's-0.35% HSA buffer and resuspended to 2×10^8 cells/ml in the same buffer.
Platelet Aggregation Assay
The fixed activated platelets are incubated with a selected dose of the compound to be tested for platelet aggregation inhibition for one minute and aggregation initiated by addition of human fibrinogen to a final concentration of 250 μg/ml. A platelet aggregation profiler Model PAP-4 is used to record the platelet aggregation. The extent of inhibition of aggregation is expressed as the percentage of the rate of aggregation observed in the absence of inhibitor.

Assay [2] deals with ADP-induced platelet aggregation in canine platelet rich plasma. The assay is described as follows: Inhibition of ADP-Induced ex-vivo Platelet Aggregation after oral administration. The assay is classed as in vivo, mongrel dogs. As to conditions: dog; for inhibition at 5 mg/kg / inhibition at 10 mg/kg: Canis lupus familiaris, Platelet. As for the experimental part: Inhibition of ADP-Induced ex-vivo Platelet Aggregation
Control blood samples are obtained 5-10 minutes prior to administration of the test compound in mongrel dogs weighing from 10 to 20 kg. The compound is administered intragasticly, via aqueous gavage, or orally, via gelatin capsule. Blood samples (5 ml) are then obtained at 30 minute intervals for 3 hours, and at 6, 12, and 24 hours after dosing. Each blood sample is obtained by venipuncture of the cephalic vein and is collected directly into a plastic syringe containing one part 3.8% trisodium citrate to nine parts blood.
Ex vivo Canine Platelet Aggregation
The blood samples are centrifuged at 1000 rpm for 10 minutes to obtain platelet rich plasma (PRP). After removal of the PRP, the sample is centrifuged for an additional 10 minutes at 2000 rpm to obtain platelet poor plasma (PPP). Platelet count in the PRP is determined by using a Coulter Counter (Coulter Electronics, Hialeah, Fla.). If the concentration of platelets in the PRP is greater than 300,000 platelets/μl, then the PRP is diluted with PPP to adjust the platelet count to 300,000 platelets/μl. Aliquots of PRP (250 μl) are then placed in siliconized glass cuvettes (7.25×55 mm, Bio/Data Corp, Horsham, Pa.). Epinephrine (final concentration of 1 μM) is then added to the PRP, which is incubated for one minute at 37° C. A stimulator of platelet aggregation, ADP at a final concentration of 10 μM, is then added to the PRP. Platelet aggregation is monitored spectrophotometrically utilizing a light transmission aggregometer (Bio/Data Platelet Aggregation Profiler, Model PAP-4, Bio/Data Corp, Horsham, Pa.). For compound to be tested, the rate of change (slope) of light transmittance and the maximum light transmittance (maximum aggregation) is recorded in duplicate. Platelet aggregation data are reported as the percent decrease (mean±SEM) in slope or maximum aggregation as compared to data obtained from control PRP, which is prepared from blood samples obtained prior to administration of the test compound.

Where [3] appears, read: fixed activated human platelets.
Setting [4] is: dose 5 mg/kg, 1 h after dosing, read-out: % Inhibition of ex-vivo Platelet Aggregation After Oral Administration, 1 h.
The mark [5] stands for this setting: dose 5 mg/kg, 3 h after dosing, read-out: % Inhibition of ex-vivo Platelet Aggregation After Oral Administration, 3 h.
The mark [6] stands for this setting: dose 5 mg/kg, 6 h after dosing, read-out: % Inhibition of ex-vivo Platelet Aggregation After Oral Administration, 6 h.
[7] abbreviates: dose 5 mg/kg, 12 h after dosing, read-out: % Inhibition of ex-vivo Platelet Aggregation After Oral Administration, 12 h.
Setting [8] is: dose 5 mg/kg, 24 h after dosing, read-out: % Inhibition of ex-vivo Platelet Aggregation After Oral Administration, 24 h.
Setting [9] is: 1 h after dosing, read-out: % Inhibition of ex-vivo Platelet Aggregation After Oral Administration, 1 h.
Setting [10] is: 3 h after dosing, read-out: % Inhibition of ex-vivo Platelet Aggregation After Oral Administration, 3 h.
The mark [11] stands for this setting: 6 h after dosing, read-out: % Inhibition of ex-vivo Platelet Aggregation After Oral Administration, 6 h.

Regarding `O=C(O)C[C@H](NC(=O)CNC(=O)CCCC1CCNCC1)C(=O)N[C@@H](Cc1c[nH]c2ccccc12)C(=O)O` [Compound of EPA '481, 4-4(piperidyl)butanoyl glycyl aspartyl tryptophan, reference compound], the IC50 in assay [1] (setting [3]) came to 0.047 µM. In addition, in assay [2] (dose 5 mg/kg, 1 h after dosing), the “% Inhibition of ex-vivo Platelet Aggregation After Oral Administration, 1 h” value is recorded as 53%. In assay [2] (dose 5 mg/kg, 3 h after dosing), the “% Inhibition of ex-vivo Platelet Aggregation After Oral Administration, 3 h” value is less than 20%.

Regarding `CCN(CC(=O)NC(CC(=O)O)C(=O)NC(CC1CCCCC1)C(=O)O)C(=O)CCCC1CCNCC1` (stereo not drawn) [Example 1, N-[N-[N-(4-(piperidin-4-yl)butanoyl)-N-ethylglycyl]aspartyl]-b-cyclogexylalanine], the IC50 in assay [1] (Homo sapiens, Platelet) worked out at 0.026 µM. Further, the inhibition at 5 mg/kg in assay [2] (setting [4]) was found to be 100%; in assay [2] (setting [5]) it was 100%; in assay [2] (setting [6]), 100%; in assay [2] (setting [7]), 88%; in assay [2] (setting [8]) it was 42%.

In the case of `CCN(CC(=O)N[C@@H](CC(=O)O)C(=O)N[C@H](C(=O)O)C(C)C)C(=O)CCCC1CCNCC1` [Example 2, N-[N-[N-(4-(piperidin-4-yl)butanoyl)-N-ethylglycyl]aspartyl]valine], the IC50 in assay [1] (Homo sapiens, Platelet) stood at 0.027 µM. For the same molecule, the inhibition at 10 mg/kg in assay [2] (setting [9]) was 90%; in assay [2] (setting [10]), 60%; in assay [2] (setting [11]), less than 20%.

As for `CCN(CC(=O)NC(CC(=O)O)C(=O)NC(Cc1ccccc1)C(=O)O)C(=O)CCCC1CCNCC1` (stereo not drawn) [Example 3, N-[N-[N-(4-piperidin-4-yl)-N-ethylglycyl]aspartyl]phenylalanine], the IC50 in assay [1] (Homo sapiens, Platelet) came out at 0.064 µM. Also, the figures for the inhibition at 10 mg/kg in assay [2] (setting [9]) and in assay [2] (setting [10]) were 40% and less than 20%, respectively.

Turning to `CCN(CC(=O)NC(CC(=O)O)C(=O)NC(C(=O)O)C(C)C)C(=O)CCCC1CCNCC1` (stereo not drawn) [Example 4], the IC50 in assay [1] (Homo sapiens, Platelet) was found to be 0.72 µM. Also, the inhibition at 10 mg/kg in assay [2] (setting [9]) is 90%; in assay [2] (setting [10]), 50%; in assay [2] (setting [11]), less than 20%.

Regarding `CCN(CC(=O)NC(CC(=O)O)C(=O)NC(CC(C)(C)C)C(=O)O)C(=O)CCCC1CCNCC1` (stereo not drawn) [Example 5], the half-maximal inhibitory concentration (IC50) in assay [1] (Homo sapiens, Platelet) was found to be 0.082 µM. For the same molecule, the inhibition at 10 mg/kg in assay [2] (setting [9]) came out at 100%; in assay [2] (setting [10]) it was 90%; in assay [2] (setting [11]), 35%.

In the case of `CCCCC(NC(=O)C(CC(=O)O)NC(=O)CN(CC)C(=O)CCCC1CCNCC1)C(=O)O` (stereo not drawn) [Example 6], in assay [1] (Homo sapiens, Platelet), the IC50 turned out to be 0.13 µM. In addition, the inhibition at 10 mg/kg in assay [2] (setting [9]) was found to be 80%; in assay [2] (setting [10]), 20%.

`CCN(CC(=O)NC(CC(=O)O)C(=O)NC(Cc1cccc2ccccc12)C(=O)O)C(=O)CCCC1CCNCC1` [Example 7, N-[N-[N-(4-(piperidin-4-yl)butanoyl)-N-ethylglycyl]aspartyl]-L-b-naphth-1-yl alanine]: the IC50 in assay [1] (Homo sapiens, Platelet) is 0.11 µM. The inhibition at 5 mg/kg was 30% in assay [2] (setting [4]) and less than 20% in assay [2] (setting [5]).

On to `CCOC(=O)C(CC1CCCCC1)NC(=O)C(CC(=O)O)NC(=O)CN(CC)C(=O)CCCC1CCNCC1` [Example 11, N-[N-[N-(4-(piperidin-4-yl)butanoyl)-N-ethylglycyl]aspartyl]-L-b-cyclohexyl alanine, ethyl ester], for which the IC50 in assay [1] (Homo sapiens, Platelet) came out at 0.064 µM. For the same molecule, the inhibition at 5 mg/kg was 100% in assay [2] (setting [4]), 100% in assay [2] (setting [5]), 60% in assay [2] (setting [6]) and 37% in assay [2] (setting [7]).

Take `CCN(CC(=O)NC(CC(=O)O)C(=O)NC(CC1CCCCC1)C(N)=O)C(=O)CCCC1CCNCC1` [Example 12, N-[N-[N-(4-(piperidin-4-yl)butanoyl)-N-ethylglycyl]aspartyl]-L-b-cyclohexyl alanine amide]: the IC50 in assay [1] (Homo sapiens, Platelet) was found to be 0.097 µM. Moreover, the inhibition at 5 mg/kg in assay [2] (setting [4]) worked out at 100%; in assay [2] (setting [5]), 100%; in assay [2] (setting [6]) it was 100%; in assay [2] (setting [7]), 98%; in assay [2] (setting [8]), 50%.

With `CCN(CC(=O)NC(CC(=O)O)C(=O)NC(CC1CCCC2CCCCC21)C(=O)O)C(=O)CCCC1CCNCC1` [Example 14, N-[N-[N-(4-(piperidin-4-yl)butanoyl)-N-ethylglycyl]aspartyl]-L-b-decahydronaphth-1-yl alanine], the IC50 in assay [1] (setting [3]) came to 0.019 µM. Also, the inhibition at 5 mg/kg in assay [2] (setting [4]) was found to be 100%; in assay [2] (setting [5]) it was 100%; in assay [2] (setting [6]), 100%; in assay [2] (setting [7]), 100%; in assay [2] (setting [8]) it was 95%.

For the molecule `CCN(CC(=O)NC(CC(=O)O)C(=O)NC(CC1CCC(C2CCCCC2)CC1)C(=O)O)C(=O)CCCC1CCNCC1` (stereo not drawn) [Example 28, N-[N-[N-(4-(piperidin-4-yl)butanoyl)-N-ethylglycyl]aspartyl]-b-(4-cyclohexyl)cyclohexylalanine], in assay [1] (Homo sapiens, Platelet), the IC50 amounted to 0.048 µM.

Take `CCN(CC(=O)NC(CC(=O)O)C(=O)NC(CC1CCCCCC1)C(=O)O)C(=O)CCCC1CCNCC1` (stereo not drawn) [Example 29, N-[N-[N-(4-(piperidin-4-yl)butanoyl)-N-ethylglycyl]aspartyl]-b-cycloheptylalanine]: the IC50 in assay [1] (Homo sapiens, Platelet) is 0.032 µM.

With `CCN(CC(=O)NC(CC(=O)O)C(=O)NC(CC1CCCCCCC1)C(N)=O)C(=O)CCCC1CCNCC1` (stereo not drawn) [Example 30, N-[N-[N-(4-(piperidin-4-yl)butanoyl)-N-ethylglycyl]aspartyl]-b-cyclooctylalanine amide], the IC50 in assay [1] (Homo sapiens, Platelet) turned out to be 0.07 µM.

Turning to `CCN(CC(=O)NC(CC(=O)O)C(=O)NC(CCCC1CCCCC1)C(=O)O)C(=O)CCCC1CCNCC1` (stereo not drawn) [Example 31, N-[N-[N-(4-(piperidin-4-yl)butanoyl)-N-ethylglycyl]aspartyl]-a-cyclohexylpropylglycine], the IC50 in assay [1] (Homo sapiens, Platelet) amounted to 0.053 µM.

In the case of `CCN(CC(=O)NC(CC(=O)O)C(=O)NC(CCC1CCCCCCC1)C(=O)O)C(=O)CCCC1CCNCC1` (stereo not drawn) [Example 32, N-[N-[N-(4-(piperidin-4-yl)butanoyl)-N-ethylglycyl]aspartyl]-b-cyclooctylmethylalanine], in assay [1] (Homo sapiens, Platelet), the IC50 came to 0.052 µM.

Turning to `CCN(CC(=O)NC(CC(=O)O)C(=O)NC(CC1CCCC1)C(=O)O)C(=O)CCCC1CCNCC1` (stereo not drawn) [Example 33, N-[N-[N-(4-(piperidin-4-yl)butanoyl)-N-ethylglycyl]aspartyl]-b-cyclopentylalanine], the IC50 in assay [1] (Homo sapiens, Platelet) turned out to be 0.047 µM.

Regarding `CCOC(=O)C(CCC1CCCCC1)NC(=O)C(CC(=O)O)NC(=O)CN(CC)C(=O)CCCC1CCNCC1` (stereo not drawn) [Example 34, N-[N-[N-(4-(piperidin-4-yl)butanoyl)-N-ethylglycyl]aspartyl]-b-cyclohexylmethylalanine ethyl ester], the IC50 in assay [1] (Homo sapiens, Platelet) stood at 0.074 µM.
